Assays:
[1] = system: MMP-1; assay: Western blot of MMP-1 in PMA- or IL-1β-pre-treated SW1353 cells (Example 6); format: cell-based, human; conditions: 48 h
Procedure: (§1) The cells were then plated on 6-cm dishes at a density of 1×10^6 cells/dish for 24 hours prior to any treatment. At the beginning of the experiment, the cells were pre-treated with 100 ng/mL PMA or 10 ng/mL IL-1β for 24 hours. The cells were then treated 0.1 μM Dexamethasone with, various astragaloside compounds (0.1 μM) or extracts of Astragalus membranaceous (1 μg/mL) at indicated dosages for another 48 hours. For control sample, 0.1% DMSO was used as a negative control for these experiments. The conditioned culture mediums were then centrifuged, 2-fold concentrated and collected for assay of collagens or MMPs secreted into the culture medium.
(§2) Western blotting analysis was carried out on both cultured medium and cell lysates, as follows. The cells were washed and lysed in 0.2 mL of lysis buffer (1% NP-40, 50 mM Tris-HCl, pH 7.4, 180 mM NaCl, 1 mM EDTA, 1 mM PMSF, 1 mM NaF, 10 mM Na3VO4) for 30 min at 4° C. After centrifuging at 17500 g for 15 min, the supernatants of cell lysate were also collected. Protein concentration of the samples were measured using the bicinchoninic acid (BCA) protein assay kit according to the manufacturer's protocol (Pierce, Rockford, Ill., USA). Equal amount of protein samples of concentrated conditioned medium (100 μg) or cell lysate supernatants (50 μg) were mixed with an appropriate volume of 4×SDS sampling buffer and separated by 8% SDS-PAGE gel. The protein bands separated in the SDS-PAGE gel were blotted onto a polyvinylidene fluoride (PVDF) membrane. The blotted PVDF membrane was washed twice and blocked in freshly prepared Tris-buffered saline (TBS) containing 0.1% Tween-20 and 7% skim milk (TBST) for 2 hours at room temperature. The PVDF membrane was then incubated with either antibodies against collagen I and III or the housekeeping protein α-tubulin (Santa Cruz Biotechnology, Santa Cruz, Calif.) for 18 hours at 4° C. Horseradish peroxidase-conjugated anti-goat antibody was used as secondary antibody. Signals were visualized by an enhanced chemiluminescence kit (Clonetech, Palo Alto, Calif., USA) followed by exposure to X-ray films.

[2] = system: MMP-13; assay: Western blot of MMP-13 in PMA- or IL-1β-pre-treated SW1353 cells (Example 6); format: cell-based, human; conditions: 0.1 μM, 48 h
Procedure: as §1
as §2, with “The PVDF membrane was then incubated with either antibodies against collagen I and III or the housekeeping protein α-tubulin (Santa Cruz Biotechnology, Santa Cruz, Calif.) for 18 hours at 4° C.” left out

[3] = system: MMP-1; assay: Zymography of MMP-1 from pre-treated SW1353 cells; format: cell-based, human; conditions: 0.1 μM, 24 h
Procedure: (§3) At the beginning of the experiment, the cells were pre-treated with 100 ng/mL PMA or 10 ng/mL IL-1β for 24 hours. The cells were then treated with 0.1 μM Dexamethasone, various astragaloside compounds (0.1 μM) or extracts of Astragalus membranaceous (1 μg/mL) at indicated dosages for another 24 hours. For control sample, 0.1% DMSO was used as a negative control for these experiments. The conditioned culture mediums were then centrifuged, 2-fold concentrated and collected for assay of collagens or MMPs secreted into the culture medium.
(§4) The proteolytic activities of MMPs from SW1353 cells were measured essentially as described previously (Circ Res, 1999; 85:906-911). The cells were lysed in lysis buffer (1% Triton X-100, 50 mM Tris-Cl, pH 7.4, 180 mM NaCl, 1 mM EDTA). The samples were measured for their protein concentration using the bicinchoninic acid (BCA) protein assay kit as described. Samples of concentrated conditioned medium and cell lysates were mixed with non-reducing electrophoresis loading buffer and subjected to electrophoresis under non-reducing conditions. The electrophoresis was carried out on a 10% SDS-PAGE co-polymerized with 2 mg/mL gelatin or casein (Sigma, St. Louis, Mo. USA). For zymographic analysis of pro-MMP-2 and activated MMP-2, the total 20 μg of culture medium were used for electrophoresis. Following electrophoresis, renaturation of the proteins was achieved by incubating the gels twice in 25 g/L Triton X-100 at room temperature for 10 min. Subsequently the gels were incubated in 50 mM Tris-HCl, pH 7.5 containing 0.2 M NaCl, 0.02% Brij35 and 10 mM CaCl2 at 37° C. for 18 hours. After the gels were stained with Coomassie Brilliant Blue R-250 and destained, zones of proteolytic activities became visible as transparent bands in the stained gel. In order to obtain higher sensitivity, the gels were further destained in a solution of 1% Triton X-100 (1 to 2 hours). This procedure increased the signal-to-noise ratio, allowing the visualization of faint gelatinase bands at 92 kDa, 125 kDa and greater than 200 kDa. Zymograms were read using a Molecular Dynamics (Sunnyvale, Calif., USA) computing laser densitometer with Image Quant software.

[4] = system: MMP-2; assay: Zymography of MMP-2 from pre-treated SW1353 cells; format: cell-based, human; conditions: 24 h
Procedure: as §3, §4

[5] = system: MMP-9; assay: Zymography of MMP-9 from pre-treated SW1353 cells; format: cell-based, human; conditions: 24 h
Procedure: as §3, §4

[6] = system: MMP-1; assay: Western blot of MMP-1 in pre-treated human chondrocytes (HCHs); format: cell-based; conditions: 48 h
[7] = system: MMP-13; assay: Western blot of MMP-13 in pre-treated human chondrocytes (HCHs); format: cell-based; conditions: 48 h
[8] = system: Type II Collagen; assay: Western blot of Type II Collagen in pre-treated human chondrocytes (HCHs); format: cell-based; conditions: 48 h
[9] = system: HCH cells; assay: Proline uptake assay; format: cell-based, human; conditions: astragalosides 0.1 μM, 24 h, Ctrl 1.00
Procedure: The proline uptake assay was carried out as described below, generally in accordance with the method disclosed in Biochim Biophys Acta. 1104:283-292, 1992, the contents of which are incorporated by reference. Briefly, HCH cells were seeded into a 24-well plate at a density of 3×10^4 cells per well and cultured for 24 hours. The cells were then treated in the absence (solvent control) or presence of the astragalosides (0.1 μM) or Astragalus membranaceous extracts (1.0 μg/mL) for another 24 hours. The treated cells were then washed once with PBS and incubated in amino acid free medium (AAFM) for another 30 min. The treated cells were then replaced with fresh AAFM containing 50 μg/mL of ascorbate and total of 0.5 mM of L-proline containing 1 μCi [^3H] Proline (American Radiolabelled Chemicals Inc, ARC, St. Louis, Mo., USA). At designated time intervals, the cells were washed with AAFM containing cold proline and then lysed in 200 μL of 2% SDS. Cell lysates were centrifuged at 15000 g for 15 min. Intracellular proline uptaken by the cells was determined by transferring 10 μL of the cell lysate to filter-bottomed UniFilter plates (Perkim-Elmer) and counting. The samples were measured for their protein concentrations using the BCA protein assay kit as described above. The amount of proline accumulated in the cells was calculated and normalized to protein concentration. And cellular uptake rate was expressed as nmole of L-proline per minute per […] of cell protein (nmole/min/μg).

[10] = IL-1β-pre-treated SW1353 cell extract, compounds 0.1 μM
[11] = IL-1β-pre-treated SW1353 culture medium, 0.1 μM
[12] = PMA-pre-treated SW1353 cell extract, 0.1 μM
[13] = PMA-pre-treated SW1353 culture medium, 0.1 μM
[14] = IL-1β-pre-treated SW1353 cell extract
[15] = IL-1β-pre-treated SW1353 culture medium
[16] = PMA-pre-treated SW1353 culture medium
[17] = IL-1β-pre-treated SW1353, compounds 0.1 μM
[18] = IL-1β-pre-treated HCH culture medium, compounds 0.1 μM
[19] = PMA-pre-treated HCH culture medium, 0.1 μM

| Compound | MMP-1, Western blot, relative to Ctrl 1.00 [1, 10] | MMP-1, Western blot, relative to Ctrl 1.00 [1, 11] | MMP-1, Western blot, relative to Ctrl 1.00 [1, 12] | MMP-1, Western blot, relative to Ctrl 1.00 [1, 13] | MMP-13, Western blot, relative to Ctrl 1.00 [2, 14] | MMP-13, Western blot, relative to Ctrl 1.00 [2, 15] | MMP-13, Western blot, relative to Ctrl 1.00 [2, 16] | MMP-1, Zymography, relative to Ctrl 1.00 ([3]; IL-1β-pre-treated SW1353) | MMP-1, Zymography, relative to Ctrl 1.00 ([3]; PMA-pre-treated SW1353) | MMP-2, Zymography, relative to Ctrl 1.00 [4, 17] | MMP-2, Zymography, relative to Ctrl 1.00 ([4]; PMA-pre-treated SW1353, 0.1 μM) | MMP-9, Zymography, relative to Ctrl 1.00 [5, 17] | MMP-9, Zymography, relative to Ctrl 1.00 ([5]; PMA-pre-treated SW1353, 0.1 μM) | MMP-1, Western blot, relative to Ctrl 1.00 [6, 18] | MMP-1, Western blot, relative to Ctrl 1.00 [6, 19] | MMP-13, Western blot, relative to Ctrl 1.00 [7, 18] | MMP-13, Western blot, relative to Ctrl 1.00 [7, 19] | Type II Collagen, Western blot, relative to Ctrl 1.00 [8, 18] | Type II Collagen, Western blot, relative to Ctrl 1.00 [8, 19] | also measured |
| --- | --- | --- | --- | --- | --- | --- | --- | --- | --- | --- | --- | --- | --- | --- | --- | --- | --- | --- | --- | --- |
| C[C@@H]1C[C@H]2[C@@H]3CCC4=CC(=O)C=C[C@]4(C)[C@@]3(F)[C@@H](O)C[C@]2(C)[C@@]1(O)C(=O)CO [Dex, Dexamethasone, reference compound] | 0.26 | 0.38 | 0.38 | 0.60 | 0.64 | 0.29 | 0.46 | 0.80 | 0.87 | 0.42 | 0.99 | 0.58 | 0.92 | 0.28 | 0.28 | 0.74 | 0.74 | 1.20 | 1.20 | MMP-13, Western blot, relative to Ctrl 1.00 ([2]; PMA-pre-treated SW1353 cell extract): 0.48 |
| CC(=O)O[C@H]1[C@H](O[C@H]2CC[C@]34C[C@]35CC[C@]3(C)[C@@H]([C@@]6(C)CC[C@@H](C(C)(C)O)O6)[C@@H](O)C[C@@]3(C)[C@@H]5C[C@H](O[C@@H]3O[C@H](CO)[C@@H](O)[C@H](O)[C@H]3O)[C@H]4C2(C)C)OC[C@@H](O)[C@@H]1O [AS2, Astragaloside II] | 0.86 | – | 0.71 | – | 0.49 | 0.45 | – | 0.77 | – | 0.79 | – | 0.79 | – | – | – | – | – | – | – | – |
| CC(C)(O)[C@@H]1CC[C@](C)([C@H]2[C@@H](O)C[C@@]3(C)[C@@H]4C[C@H](O[C@@H]5O[C@H](CO)[C@@H](O)[C@H](O)[C@H]5O)[C@H]5C(C)(C)[C@@H](O[C@@H]6OC[C@@H](O)[C@H](O)[C@H]6O[C@@H]6O[C@H](CO)[C@@H](O)[C@H](O)[C@H]6O)CC[C@@]56C[C@@]46CC[C@]23C)O1 [AS6, Astragaloside VI] | 0.63 | – | – | 0.40 | – | – | 0.93 | – | – | – | – | – | – | 0.97 | 0.51 | – | 0.26 | 1.34 | 1.74 | MMP-13, Western blot, relative to Ctrl 1.00 ([7]; PMA-pre-treated HCH cell extract, 0.1 μM): 0.54; proline uptake, Relative fold [9]: 1.69 fold |
| CC(C)(O)[C@@H]1CC[C@](C)([C@H]2[C@@H](O)C[C@@]3(C)[C@@H]4C[C@H](O)[C@H]5C(C)(C)[C@@H](O[C@@H]6OC[C@@H](O)[C@H](O)[C@H]6O[C@@H]6O[C@H](CO)[C@@H](O)[C@H](O)[C@H]6O)CC[C@@]56C[C@@]46CC[C@]23C)O1 [AS3, Astragaloside III] | 0.39 | 0.09 | – | – | 0.86 | – | – | – | 0.89 | – | 0.90 | – | 0.87 | – | – | 0.75 | – | 1.03 | – | – |
| Astragaloside I [AS1] | 0.66 | – | 0.86 | 0.48 | 0.37 | – | 1.15 | 0.86 | 0.85 | 0.76 | 0.87 | 0.79 | 1.23 | – | – | – | – | – | – | – |

— patent US8168596B2, “Use of cycloartane compounds for treating arthritis” (NuLiv Holding Inc., priority 2008, dated 2012)
